# Laboratory results from patent US20070275953A1 (priority 2003, published 2007).
# Like-named read-outs stand apart in the source and are kept apart here.
# Columns and labels:
# Type in all cases: cell-based
# [1] = test system: HIV-1 with WT (wild type) RT in TZM-bl cells; test: Anti-HIV assay on TZM-bl cell line, WT RT
# Experimental: Wurzburg Jurkat T cells (subclone JR) were transfected with 10 μg of the circularly permuted infectious molecular clone HIVNL4-3 (Adachi et al., 1986. J. Virol, 59 (2), p 284-291). Two days later, co-cultivation with SupT1 cells (a human T-cell lymphoma cell line) was initiated to facilitate rapid production of progeny virions. Production of virus was measured by using the Innotest HIV Antigen mAb p24 kit (Innogenetics). At the peak of production cultures were harvested and filtered. The virus stocks were stored at −80° C. until used.
# (§1) Anti-HIV activity and cytotoxicity of the compounds were tested on the TZM-b1 cell line. The TZM-b1 cell line (Wei et al. 2002. Antimicrob. Agents Chemother. Vol. 46, p 1896-1905) was received from the NIH AIDS Research and Reference Reagent Program. These cells were cultured in complete DMEM medium supplemented with 10% fetal bovine serum (FBS), and 1% Penicillin/Streptomycin. Exponentially growing cells were trypsinized, centrifuged and split twice weekly at 5 10^4 cells/ml.
# (§2) The anti-HIV assay with TZM-b1 cells is essentially the same as described above with P4 cells. The main difference between the two cell lines is that the TZM-b1 cells express at their surface both the CD4 and CCR5 proteins, acting as receptor and co-receptor for HIV entry, respectively (Wei et al. 2002. Antimicrob. Agents Chemother. Vol. 46, p 1896-1905). This feature makes the cells very sensitive to infection by the virus. The TMZ-b1 cells were infected with equal amount of cell-free virus, corresponding to 10 ng of HIV p24 antigen. This amount is ten times lower than the amount used to infect the P4 cells.
# [2] = test system: HIV-1 mutant Cys188RT in P4 cells; test: Anti-HIV assay on P4 cells, Cys188RT mutant
# Excerpt: (§3) In order to introduce mutation(s) at the level of the pol gene coding for the RT in the pNL4-3 plasmid containing the complete viral genome (Adachi et al., 1986. J. Virol., Vol. 59 p 284-291) we used the “Quick change mutagenesis kit” (Stratagene). The following mutations were separately introduced in pNL4-3: L100I, K103N, V108I, Y181C, Y188C, and the double mutations K103N/V108I. These mutations were chosen because of the resistance that they confer to existing NNRTI. The production procedure of the mutant viral stocks is identical to the one described above.
# Anti-HIV activity and cytotoxicity of the compounds were tested on a P4 cell line. The P4 cell line (Clavel & Charneau, 1994. J. Virol., Vol. 68 p 1179-1185) was provided by Dr. François Clavel (Unité de recherche antivirale de l'hôpital Xavier Bichat Paris: Inserm). The P4 cells were cultured in complete DMEM medium supplemented with 10% fetal bovine serum (FBS), 0.5% of Penicillin/Streptomycin and G418 at 0.5 mg/ml. Exponentially growing cells were trypsinized, centrifuged and split twice weekly at 5.10^4 cells/ml.
# The P4 cells are HIV-infectible Hela-CD4 cells that carry the bacterial lacZ gene under the control of the HIV-1 long terminal repeat (LTR). In this cell line, transcription of the LacZ gene is driven by the HIV-1 LTR. As such, the cytoplasmic accumulation of β-galactosidase is strictly dependent on the presence of the HIV transactivator Tat produced during the intracellular viral replication (Clavel & Charneau, 1994. J. Virol., Vol. 68, p. 1179-1185). In other words, in this system, the expression level of the β-galactosidase gene is proportional to the viral replication.
# Briefly, in the anti-HIV assay 100 Ål of P4 cells were plated in 96-well plate at a concentration of 0.4 10^5 cells/ml and incubated at 37° C., 5% CO2. After 48 h, the medium was removed and 100 Ål of the different drugs dilutions were added to the cells. Four hours after the addition of the drugs all cells were infected with equal amount of cell-free virus, corresponding to 100 ng of HIV p24 antigen. After 48 h of incubation at 37° C., 5% CO2, β-galactosidase activity was measured using chlorophenol red-β-D-galactopyranoside assays.
# The absorbance was measured on a Benchmark™ Microplate Reader (Biorad) (λ=570 nm) and compared with 12 cell control replicates (no virus or drug added) and 12 virus control wells (no drug added). Each assay was performed a minimum of three times. The 50% effective concentration (Ec50) was calculated from each dose response curve using the CurveExpert 1.3 software. As Nevirapine activity corresponds to its published values (10-100 nM), the data are consistent with other measures of viral replication.
# [3] = test system: HIV-1 mutant Cys188RT in MT4 cells; test: Anti-HIV assay on MT4 cells, Cys188RT mutant
# Excerpt: as §3
# Anti-HIV activity of the compounds was tested on MT-4 cell line. The MT-4 cell line (Larder et al. 1989. Sciences, Vol. 243 p 1731) was received from the NIH AIDS Research and Reference Reagent Program. These cells were cultured in RPMI medium supplemented with 10% fetal bovine serum (FBS), and 1% Penicillin/Streptomycin. The cultures were split regularly to keep cells densities between 0.3 to 1.2 10^6 cells/ml.
# The MT-4 cells rapidly die upon infection by HIV. In this system there is an inverse correlation between cells survival and the amount of viral replication.
# Briefly, in the anti-HIV assay exponentially growing MT-4 cells were infected with HIV-1. 100 μl of infected MT-4 cells were seeded in 96-well plate at a concentration of 0.4 10^5 cells/ml, and 100 μl of the different drugs dilutions were added to the cells. After 4 days of incubation at 37° C., 5% CO2, cells survival was measured using MTS (3-(4-5-dimethylthiazol-2-yl)-5-(−(3-carboxymethoxyphenyl)-2-(4-sulfophenyl)-2H-tetrazolium) assays. This compound is reduced by viable cells in a colored soluble formazan salt.
# The absorbance was measured on a Benchmark™ Microplate Reader (Biorad) (λ=490 nm) and compared with 12 cell control replicates (nor virus nor drug added) and 12 virus control wells (no drug added). Each assay was performed a minimum of three times. The 50% effective concentration (EC50) was calculated from each dose response curve using the CurveExpert 1.3 software.
# [4] = test system: HIV-1 mutant Asn103/Ile108RT in TZM-bl cells; test: Anti-HIV assay on TZM-bl cells, Asn103/Ile108RT double mutant; conditions: read-out: EC50 Asn103/Ile108RT TZM-bl
# Excerpt: as §3, §1, §2
# [5] = test system: HIV-1 mutant Ile100RT in TZM-bl cells; test: Anti-HIV assay on TZM-bl cells, Ile100RT mutant; conditions: read-out: EC50 Ile100RT TZM-bl
# Excerpt: as §3, §1, §2
# [6] = P4, mutant Cys188RT, read-out: EC50 Cys188RT P4
# [7] = Human immunodeficiency virus 1, MT4, read-out: EC50 Cys188RT MT4
# [8] = Human immunodeficiency virus 1, TZM-bl
# [9] = Human immunodeficiency virus 1, read-out: EC50 Cys188RT P4
# [10] = MT4, mutant Cys188RT, read-out: EC50 Cys188RT MT4
# [11] = TZM-bl, double mutant Asn103/Ile108RT
Compound,EC50 [1],"EC50 [2, 6]","EC50 [3, 7]","EC50 [4, 8]",EC50 ([1]; Human immunodeficiency virus 1),"EC50 [5, 8]","EC50 [2, 9]","EC50 ([5]; TZM-bl, mutant Ile100RT)","EC50 [3, 10]","EC50 [4, 11]"
"CCOC(=O)c1c(OC2CC(C)CC(C)C2)c(CC)c(C)[nH]c1=O (single isomer, unassigned) [Z37inv]",0.439 µM,0.01 µM,,,,,,,,
"O=C1Nc2ccc(Cl)cc2[C@@](C#CC2CC2)(C(F)(F)F)O1 [Efavirenz, reference compound]",,,0.001 µM,0.15 µM,< 0.001 µM,0.017 µM,< 0.001 µM,,,
"Cc1ccnc2c1NC(=O)c1cccnc1N2C1CC1 [Nevirapine, reference compound]",,,> 5 µM,,0.056 µM,0.05 µM,1.64 µM,,,
CCc1c(C)[nH]c(=O)c(CO)c1OC1CC(C)CC(C)C1 (stereo not drawn) [Z45inv],0.197 µM,0.008 µM,,,,,,0.382 µM,,
"CCc1c(C)[nH]c(=O)c([N+](=O)[O-])c1OC1CC(C)CC(C)C1 (stereo not drawn) [Z91inv, 3-nitro-5-ethyl-6-methyl-4-[(3,5-dimethylcyclohexyl)oxy]pyridine-2(1H)-one]",,,0.043 µM,,< 0.001 µM,0.002 µM,< 0.001 µM,,,
CCc1c(C)[nH]c(=O)c(CSC(C)=O)c1OC1CC(C)CC(C)C1 (stereo not drawn) [Z114],0.011 µM,0.003 µM,,,,,,0.077 µM,1.68 µM,
"CCc1c(C)[nH]c(=O)c(N(C)C)c1OC1CC(C)CC(C)C1 (stereo not drawn) [Z150, 3-(dimethylamino)-5-ethyl-6-methyl-4-[(3,5-dimethylcyclohexyl)oxy]pyridine-2(1H)-one]",,,0.006 µM,0.158 µM,< 0.001 µM,0.02 µM,< 0.001 µM,,,
CCc1c(C)[nH]c(=O)c(CN=[N+]=[N-])c1OC1CC(C)CC(C)C1 (stereo not drawn) [Z153],< 0.001 µM,< 0.001 µM,,,,,,0.029 µM,0.033 µM,0.366 µM
CCc1c(C)[nH]c(=O)c(C)c1OC1CC(C)CC(C)C1 (stereo not drawn) [Z154],0.003 µM,< 0.001 µM,,,,,,0.04 µM,,0.231 µM
